Data from the supplement of paper PMC8558673.
± gives the standard deviation of the averaged measurements.

Test system: Escherichia coli K12 ER1821
Assay: log10 surviving fraction N/N0 (CFU/mL relative to untreated control) (log_unit); higher = more bacterial survival (less inactivation)
Method: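 E. coli K12 ER1821 (mid-exponential, washed in 250 mM sucrose) was exposed to antibiotic at MIC, 3x, 10x or 30x MIC, given a single 1-ms pulse of 0-20 kV/cm, and incubated with the antibiotic at room temperature for <=1 min, 60 min, 160 min or 24 h before dilution. Survivors were counted as CFU by drop plating after overnight growth at 37 C; the value is log10(N/N0) relative to the untreated control (no antibiotic, no pulse), with 3 replicates on different days.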

CC1(C)S[C@@H]2[C@H](NC(=O)[C@H](N)c3ccccc3)C(=O)N2[C@H]1C(=O)O [ampicillin]
log10 surviving fraction N/N0
Details	antibiotic concentration 30 ug/mL	antibiotic concentration 90 ug/mL	antibiotic concentration 300 ug/mL	antibiotic concentration 900 ug/mL
electric pulse amplitude (kV/cm, single 1-ms pulse): 0, post-pulse incubation time: 24 h	-0.726 ± 0.21	-1.73 ± 0.5	-2.56 ± 0.4	-2.68 ± 0.58
electric pulse amplitude (kV/cm, single 1-ms pulse): 0, post-pulse incubation time: 60 min	-0.0801 ± 0.11	-0.135 ± 0.071	-1.02 ± 0.3	-1.65 ± 0.55
electric pulse amplitude (kV/cm, single 1-ms pulse): 0, post-pulse incubation time: 160 min	-0.551 ± 0.082	-1.08 ± 0.51	-1.68 ± 0.37	-2.17 ± 0.18
electric pulse amplitude (kV/cm, single 1-ms pulse): 0, post-pulse incubation time: <=1 min	-0.0839 ± 0.2	-0.253 ± 0.21	-0.17 ± 0.065	-0.995 ± 1.3
electric pulse amplitude (kV/cm, single 1-ms pulse): 5, post-pulse incubation time: 24 h	-1.01 ± 0.22	-1.77 ± 0.29	-2.86 ± 0.12	-3.4 ± 0.45
electric pulse amplitude (kV/cm, single 1-ms pulse): 5, post-pulse incubation time: 60 min	-0.411 ± 0.078	-0.494 ± 0.28	-1.56 ± 0.34	-2.27 ± 0.084
electric pulse amplitude (kV/cm, single 1-ms pulse): 5, post-pulse incubation time: 160 min	-0.803 ± 0.34	-1.47 ± 0.42	-2.27 ± 0.37	-2.86 ± 0.15
electric pulse amplitude (kV/cm, single 1-ms pulse): 5, post-pulse incubation time: <=1 min	-0.112 ± 0.21	-0.305 ± 0.13	-0.412 ± 0.064	-1.08 ± 0.74
electric pulse amplitude (kV/cm, single 1-ms pulse): 10, post-pulse incubation time: 24 h	-1.62 ± 0.53	-2.91 ± 0.34	-4.063 ± 0.034	-4.5 ± 0.3
electric pulse amplitude (kV/cm, single 1-ms pulse): 10, post-pulse incubation time: 60 min	-1.07 ± 0.36	-1.59 ± 0.21	-2.43 ± 0.1	-2.817 ± 0.024
electric pulse amplitude (kV/cm, single 1-ms pulse): 10, post-pulse incubation time: 160 min	-1.64 ± 0.27	-2.22 ± 0.14	-2.96 ± 0.21	-3.31 ± 0.052
electric pulse amplitude (kV/cm, single 1-ms pulse): 10, post-pulse incubation time: <=1 min	-0.474 ± 0.15	-0.722 ± 0.092	-1.11 ± 0.27	-1.27 ± 0.38
electric pulse amplitude (kV/cm, single 1-ms pulse): 15, post-pulse incubation time: 24 h	-2.66 ± 0.68	-3.79 ± 0.51	-4.45 ± 0.2	-4.93 ± 0.065
electric pulse amplitude (kV/cm, single 1-ms pulse): 15, post-pulse incubation time: 60 min	-1.88 ± 0.47	-2.12 ± 0.2	-2.9 ± 0.12	-3.28 ± 0.097
electric pulse amplitude (kV/cm, single 1-ms pulse): 15, post-pulse incubation time: 160 min	-2.2 ± 0.31	-2.74 ± 0.23	-3.3 ± 0.13	-3.8 ± 0.19
electric pulse amplitude (kV/cm, single 1-ms pulse): 15, post-pulse incubation time: <=1 min	-1.1 ± 0.047	-1.29 ± 0.091	-1.34 ± 0.096	-1.99 ± 0.23
electric pulse amplitude (kV/cm, single 1-ms pulse): 20, post-pulse incubation time: 24 h	-3.57 ± 0.55	-4.39 ± 0.22	-4.6 ± 0.24	-4.96 ± 0.26
electric pulse amplitude (kV/cm, single 1-ms pulse): 20, post-pulse incubation time: 60 min	-2.46 ± 0.41	-2.71 ± 0.36	-3.42 ± 0.14	-3.64 ± 0.23
electric pulse amplitude (kV/cm, single 1-ms pulse): 20, post-pulse incubation time: 160 min	-2.65 ± 0.27	-3.23 ± 0.18	-3.77 ± 0.091	-4.02 ± 0.18
electric pulse amplitude (kV/cm, single 1-ms pulse): 20, post-pulse incubation time: <=1 min	-1.34 ± 0.096	-1.45 ± 0.41	-1.85 ± 0.18	-2.58 ± 0.27

O=C(O)c1cn(C2CC2)c2cc(N3CCNCC3)c(F)cc2c1=O [ciprofloxacin]
log10 surviving fraction N/N0
Details	antibiotic concentration 0.025 ug/mL	antibiotic concentration 0.075 ug/mL	antibiotic concentration 0.25 ug/mL	antibiotic concentration 0.75 ug/mL
electric pulse amplitude (kV/cm, single 1-ms pulse): 0, post-pulse incubation time: 24 h	-1.23 ± 0.19	-2.32 ± 0.059	-3.37 ± 0.11	-2.76 ± 0.23
electric pulse amplitude (kV/cm, single 1-ms pulse): 0, post-pulse incubation time: 60 min	-0.187 ± 0.1	-0.389 ± 0.13	-1.04 ± 0.12	-1.39 ± 0.16
electric pulse amplitude (kV/cm, single 1-ms pulse): 0, post-pulse incubation time: 160 min	-0.358 ± 0.26	-0.825 ± 0.37	-1.78 ± 0.42	-2.04 ± 0.32
electric pulse amplitude (kV/cm, single 1-ms pulse): 0, post-pulse incubation time: <=1 min	-0.0971 ± 0.099	-0.218 ± 0.055	-0.361 ± 0.14	-0.897 ± 0.1
electric pulse amplitude (kV/cm, single 1-ms pulse): 5, post-pulse incubation time: 24 h	-1.2 ± 0.25	-2.36 ± 0.19	-3.46 ± 0.16	-2.88 ± 0.27
electric pulse amplitude (kV/cm, single 1-ms pulse): 5, post-pulse incubation time: 60 min	-0.336 ± 0.14	-0.615 ± 0.25	-1.11 ± 0.18	-1.47 ± 0.23
electric pulse amplitude (kV/cm, single 1-ms pulse): 5, post-pulse incubation time: 160 min	-0.532 ± 0.35	-0.993 ± 0.39	-1.87 ± 0.49	-2.11 ± 0.44
electric pulse amplitude (kV/cm, single 1-ms pulse): 5, post-pulse incubation time: <=1 min	-0.217 ± 0.19	-0.161 ± 0.28	-0.535 ± 0.29	-1.04 ± 0.27
electric pulse amplitude (kV/cm, single 1-ms pulse): 10, post-pulse incubation time: 24 h	-1.78 ± 0.21	-2.97 ± 0.18	-3.49 ± 0.19	-3.36 ± 0.33
electric pulse amplitude (kV/cm, single 1-ms pulse): 10, post-pulse incubation time: 60 min	-0.593 ± 0.57	-1.29 ± 0.46	-1.69 ± 0.37	-2.16 ± 0.25
electric pulse amplitude (kV/cm, single 1-ms pulse): 10, post-pulse incubation time: 160 min	-1.04 ± 0.52	-1.73 ± 0.55	-2.52 ± 0.42	-2.86 ± 0.42
electric pulse amplitude (kV/cm, single 1-ms pulse): 10, post-pulse incubation time: <=1 min	-0.507 ± 0.38	-0.67 ± 0.47	-0.989 ± 0.35	-1.83 ± 0.28
electric pulse amplitude (kV/cm, single 1-ms pulse): 15, post-pulse incubation time: 24 h	-2.35 ± 0.31	-3.37 ± 0.24	-3.85 ± 0.34	-4.09 ± 0.56
electric pulse amplitude (kV/cm, single 1-ms pulse): 15, post-pulse incubation time: 60 min	-1.41 ± 0.47	-1.81 ± 0.67	-2.34 ± 0.29	-2.77 ± 0.24
electric pulse amplitude (kV/cm, single 1-ms pulse): 15, post-pulse incubation time: 160 min	-1.62 ± 0.71	-2.31 ± 0.57	-3.12 ± 0.34	-3.27 ± 0.31
electric pulse amplitude (kV/cm, single 1-ms pulse): 15, post-pulse incubation time: <=1 min	-1.25 ± 0.49	-1.2 ± 0.45	-1.55 ± 0.46	-2.28 ± 0.38
electric pulse amplitude (kV/cm, single 1-ms pulse): 20, post-pulse incubation time: 24 h	-3.05 ± 0.28	-3.76 ± 0.18	-4.37 ± 0.31	-4.6 ± 0.33
electric pulse amplitude (kV/cm, single 1-ms pulse): 20, post-pulse incubation time: 60 min	-1.77 ± 0.32	-2.25 ± 0.66	-2.75 ± 0.42	-3.05 ± 0.25
electric pulse amplitude (kV/cm, single 1-ms pulse): 20, post-pulse incubation time: 160 min	-1.92 ± 0.58	-2.73 ± 0.52	-3.31 ± 0.43	-3.37 ± 0.14
electric pulse amplitude (kV/cm, single 1-ms pulse): 20, post-pulse incubation time: <=1 min	-1.65 ± 0.52	-1.77 ± 0.58	-2.05 ± 0.29	-2.91 ± 0.26

CN(C)[C@@H]1C(O)=C(C(N)=O)C(=O)[C@@]2(O)C(O)=C3C(=O)c4c(O)cccc4[C@@](C)(O)[C@H]3C[C@@H]12 [tetracycline]
log10 surviving fraction N/N0
Details	antibiotic concentration 2 ug/mL	antibiotic concentration 6 ug/mL	antibiotic concentration 20 ug/mL	antibiotic concentration 60 ug/mL
electric pulse amplitude (kV/cm, single 1-ms pulse): 0, post-pulse incubation time: 24 h	-0.417 ± 0.088	-0.475 ± 0.12	-0.573 ± 0.19	-1.45 ± 0.4
electric pulse amplitude (kV/cm, single 1-ms pulse): 0, post-pulse incubation time: 60 min	-0.108 ± 0.059	-0.125 ± 0.075	-0.116 ± 0.12	-0.361 ± 0.13
electric pulse amplitude (kV/cm, single 1-ms pulse): 0, post-pulse incubation time: 160 min	-0.0521 ± 0.044	-0.172 ± 0.11	-0.241 ± 0.039	-0.461 ± 0.24
electric pulse amplitude (kV/cm, single 1-ms pulse): 0, post-pulse incubation time: <=1 min	-0.0586 ± 0.051	-0.2 ± 0.12	-0.136 ± 0.1	-0.26 ± 0.19
electric pulse amplitude (kV/cm, single 1-ms pulse): 5, post-pulse incubation time: 24 h	-0.436 ± 0.19	-0.518 ± 0.25	-0.877 ± 0.35	-2.42 ± 0.75
electric pulse amplitude (kV/cm, single 1-ms pulse): 5, post-pulse incubation time: 60 min	-0.307 ± 0.18	-0.307 ± 0.11	-0.303 ± 0.11	-0.636 ± 0.065
electric pulse amplitude (kV/cm, single 1-ms pulse): 5, post-pulse incubation time: 160 min	-0.235 ± 0.033	-0.282 ± 0.076	-0.345 ± 0.044	-0.84 ± 0.19
electric pulse amplitude (kV/cm, single 1-ms pulse): 5, post-pulse incubation time: <=1 min	-0.0914 ± 0.14	-0.264 ± 0.18	-0.276 ± 0.28	-0.618 ± 0.28
electric pulse amplitude (kV/cm, single 1-ms pulse): 10, post-pulse incubation time: 24 h	-0.65 ± 0.17	-0.762 ± 0.33	-1.8 ± 1.2	-3.46 ± 0.28
electric pulse amplitude (kV/cm, single 1-ms pulse): 10, post-pulse incubation time: 60 min	-0.769 ± 0.21	-0.825 ± 0.09	-1.02 ± 0.17	-1.72 ± 0.16
electric pulse amplitude (kV/cm, single 1-ms pulse): 10, post-pulse incubation time: 160 min	-0.827 ± 0.15	-0.925 ± 0.08	-1.11 ± 0.65	-2.1 ± 0.2
electric pulse amplitude (kV/cm, single 1-ms pulse): 10, post-pulse incubation time: <=1 min	-0.389 ± 0.17	-0.48 ± 0.32	-0.656 ± 0.44	-1.39 ± 0.28
electric pulse amplitude (kV/cm, single 1-ms pulse): 15, post-pulse incubation time: 24 h	-1 ± 0.26	-1.48 ± 0.42	-2.97 ± 0.83	-4.05 ± 0.41
electric pulse amplitude (kV/cm, single 1-ms pulse): 15, post-pulse incubation time: 60 min	-1.45 ± 0.26	-1.53 ± 0.19	-1.82 ± 0.21	-2.48 ± 0.15
electric pulse amplitude (kV/cm, single 1-ms pulse): 15, post-pulse incubation time: 160 min	-1.46 ± 0.33	-1.63 ± 0.21	-1.99 ± 0.35	-2.74 ± 0.24
electric pulse amplitude (kV/cm, single 1-ms pulse): 15, post-pulse incubation time: <=1 min	-0.764 ± 0.32	-0.971 ± 0.36	-1.23 ± 0.49	-2.06 ± 0.29
electric pulse amplitude (kV/cm, single 1-ms pulse): 20, post-pulse incubation time: 24 h	-1.49 ± 0.25	-1.98 ± 0.65	-3.9 ± 0.48	-4.78 ± 0.42
electric pulse amplitude (kV/cm, single 1-ms pulse): 20, post-pulse incubation time: 60 min	-1.99 ± 0.32	-2.02 ± 0.21	-2.25 ± 0.32	-3.13 ± 0.29
electric pulse amplitude (kV/cm, single 1-ms pulse): 20, post-pulse incubation time: 160 min	-1.97 ± 0.35	-2.19 ± 0.23	-2.44 ± 0.39	-3.57 ± 0.25
electric pulse amplitude (kV/cm, single 1-ms pulse): 20, post-pulse incubation time: <=1 min	-1.26 ± 0.25	-1.3 ± 0.48	-1.57 ± 0.41	-2.34 ± 0.29
